Patent US20130196999A1, “METHODS OF CONTROLLING NEONICOTINOID RESISTANT APHIDS” (SYNGENTA CROP PROTECTION LLC, priority 2010, published 2013)

Tests used:
[1] = system: neonicotinoid insecticide susceptible strain 4106A; test: Leaf disc spray bioassay, aphid mortality, susceptible strain; format: in vivo; settings: mixed age aphids on chinese cabbage leaf discs, Potter Tower spray, mortality 72 hours after treatment; strain 4106A from Rothamsted Research
Description: (§1) The following bioassay methodology was utilized to generate the data included in the table:
(§2) 5 cm leaf discs were taken from fully expanded chinese cabbage leaves and placed with the underside facing upwards onto water agar in 5 cm Petri dishes. The leaf discs are infested with between 30 and 40 mixed age aphids 24 hours prior to insecticide treatment. The leaf surface is sprayed with the appropriate test solutions in a Burkhard Potter Tower at an approximate water volume of […]. Test containers are stored at 21° C., 60% RH and 16:8 light/dark. Aphids were assessed for mortality 72 hours after treatment.

[2] = system: neonicotinoid insecticide resistant aphid strain; test: Leaf disc spray bioassay, aphid mortality, resistant strain; format: in vivo, aphids; settings: for LC50 with 95% confidence limit, resistant strain: mixed age aphids on chinese cabbage leaf discs, Potter Tower spray, mortality 72 hours after treatment, strain collected from peach orchard, Avignon region, 2009
Description: as §1, §2

SMILES | LC50 with 95% confidence limit, susceptible strain [1] | LC50 with 95% confidence limit, resistant strain [2] | cross-resistance with neonicotinoid insecticides ([2]; neonicotinoid resistant populations of aphids)
CC1=NNC(=O)N(N=Cc2cccnc2)C1 [pymetrozine, 4,5-dihydro-6-methyl-4-(3-pyridylmethyleneamino)-1,2,4-triazin-3(2H)-one] | 0.52 (0.4-0.66) ppm | 3.07 (0.97-6.59) ppm | no cross-resistance
CN1COCN(Cc2cnc(Cl)s2)/C1=N\[N+](=O)[O-] [thiamethoxam, reference compound] | 0.35 (0.3-0.41) ppm | 148 (128-172) ppm | 
